What was measured:
Agam\Orco = biological target: T1, Agam\Orco (Anopheles gambiae, UniProt Q7QCC7); assay: Antagonism of OLC12 activation of Orco in Xenopus oocytes; type: cell-based; details: 30µM OLC12, 10µM tryptamine
T1 sequence (Q7QCC7 1-478): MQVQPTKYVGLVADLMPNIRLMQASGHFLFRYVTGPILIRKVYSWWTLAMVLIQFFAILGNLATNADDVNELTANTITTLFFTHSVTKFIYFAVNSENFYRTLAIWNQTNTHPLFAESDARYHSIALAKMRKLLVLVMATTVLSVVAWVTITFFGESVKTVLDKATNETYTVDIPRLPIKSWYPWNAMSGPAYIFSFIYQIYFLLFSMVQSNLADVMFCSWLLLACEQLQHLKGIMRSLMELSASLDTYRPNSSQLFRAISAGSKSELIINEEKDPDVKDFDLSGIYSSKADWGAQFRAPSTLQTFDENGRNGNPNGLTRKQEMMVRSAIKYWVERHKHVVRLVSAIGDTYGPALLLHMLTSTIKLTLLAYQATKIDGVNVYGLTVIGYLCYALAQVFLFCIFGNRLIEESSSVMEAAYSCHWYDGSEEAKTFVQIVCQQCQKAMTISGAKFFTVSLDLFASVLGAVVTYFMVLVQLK
Experimental: (§1) Follicle cells were removed by treatment with collagenase B (Boehringer Mannheim) for 2 hours at room temperature. Capped cRNA encoding each OR subunit was generated using mMessage mMachine kits (Ambion). For heteromeric ORs, 25 ng of cRNA encoding each OR subunit was injected into Stage V-VI Xenopus oocytes. For expression of Orco homomers, 50 ng of cRNA was injected. Oocytes were incubated at 18°C in Barth's saline (in mM: 88 NaCl, 1 KCl, 2.4 NaHCO 3, 0.3 CaNO 3, 0.41 CaCl 2, 0.82 MgSO 4, 15 HEPES, pH 7.6, and 150µg/ml ceftazidime) for 2–5 days prior to electrophysiological recording.
(§2) Odorant and Orco ligand induced currents were recorded under two-electrode voltage clamp, using an automated parallel electrophysiology system (OpusExpress 6000A, Molecular Devices). Oocytes were perfused with ND96 (in mM: 96 NaCl, 2 KCl, 1 CaCl 2, 1 MgCl 2, 5 HEPES, pH 7.5). Orco ligands were prepared as 50 or 100 mM stock solutions in DMSO and then diluted into ND96 on the day of the experiment. Odorants were prepared as 100 mM stock solutions in DMSO and then diluted into ND96. Unless otherwise noted, applications were for 60 sec at a flow rate of 1.0 ml/min, with extensive washing in ND96 at 4.6 ml/min between applications. Micropipettes were filled with 3 M KCl and had resistances of 0.2–2.0 MΩ. The holding potential was -70 mV. […]

Dmel\Orco = biological target: T2, Dmel\Orco (Drosophila melanogaster, UniProt Q9VNB5); assay: as above; type: cell-based; details: 20µM OLC12, 10µM tryptamine
T2 sequence (Q9VNB5 1-486): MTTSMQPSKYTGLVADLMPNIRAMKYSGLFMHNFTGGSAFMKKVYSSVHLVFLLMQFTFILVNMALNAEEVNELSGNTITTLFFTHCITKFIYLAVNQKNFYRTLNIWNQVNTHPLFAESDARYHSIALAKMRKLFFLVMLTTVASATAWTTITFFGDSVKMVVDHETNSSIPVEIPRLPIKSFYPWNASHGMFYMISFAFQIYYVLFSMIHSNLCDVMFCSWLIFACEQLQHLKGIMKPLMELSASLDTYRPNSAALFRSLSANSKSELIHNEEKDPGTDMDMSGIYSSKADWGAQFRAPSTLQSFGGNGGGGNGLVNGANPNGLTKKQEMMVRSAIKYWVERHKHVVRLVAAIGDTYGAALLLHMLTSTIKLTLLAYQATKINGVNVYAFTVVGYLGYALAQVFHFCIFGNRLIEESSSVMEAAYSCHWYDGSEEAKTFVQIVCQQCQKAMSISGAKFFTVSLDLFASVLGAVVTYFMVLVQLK
Experimental: as §1, §2

For NCCc1c[nH]c2ccccc12 [tryptamine], the “inhibition of OLC12 activation of Orco” value (Agam\Orco) was “inhibited OLC12 activation of Orco from each of these three insect species” and the “inhibition of OLC12 activation of Orco” value (Dmel\Orco) was “inhibited OLC12 activation of Orco from each of these three insect species”.
